Laboratory results from publication PMC5520057, “Modulation of nongenomic activation of PI3K signalling by tetramerization of N-terminally-cleaved RXRα” (Nature Communications, 2017).
Read-outs that look alike come from different tables or passages of the source.

How the values were obtained:
[1] = system: p85α / tRXRα/F313A interaction; test: coIP, p85α with tRXRα/F313A; assay type: cell-based; details: HEK293T cells; K-80003 (5 × 10^−6 M) for 6 h; coIP anti-HA
Experimental: (§3) For coIP assay[29], HEK293T cells grown in 10 cm dishes were transfected with various plasmids. Cells were lysed in 1 ml of lysis buffer (20 mM Tris (pH 7.5), 150 mM NaCl, 1% Triton X-100, 1 mM EDTA, 30 mM NaF, 2 mM sodium pyrophosphate) with a cocktail of proteinase inhibitors (Roche). Lysates were incubated with the appropriate antibody for 12 h at 4 °C and subsequently incubated with protein A-Sepharose beads for 1 h. The immunoprecipitates were collected and washed three times with lysis buffer. The protein–antibody complexes recovered on beads were subjected to immunoblotting using appropriate antibodies after separation by SDS-PAGE. Input represents 5% of cell lysates used for coIP assays.

RXRα-LBD/L433D [2] = test: Non-denaturing gel electrophoresis, L433D mutant; assay type: biochemical, human; details: K-80003 (20 μM), 3 h at 4 °C
Experimental: (§1) The human RXRα LBD (residues Thr223 to Thr462) cloned as an N-terminal histidine-tagged fusion protein in pET15b expression vector was expressed in Escherichia coli BL21 strain (Stratagene). After sonication, cell extract was incubated with the His60 Ni Superflow resin, and His-tagged RXRα-LBD-resin complexes were washed, eluted and concentrated to 5 mg ml^−1 for subsequent trails. For crystallization experiment, bovine thrombin (Sigma) was used to cleave the His tag from the purified His-tagged RXRα-LBD. The resulting His tag was removed on the Resource-Q column (GE) using 0.1–1 M NaCl gradient and the Tris-Cl pH 8 buffer. RXRα-LDB was further purified using gel filtration on a Superdex 200 2660 column (GE) pre-equilibrated with the 75 mM NaCl, 20 mM Tris-Cl buffer (pH 8).

tRXRα [3] = test: MCF-7/tRXRα xenograft tumours, immunostaining; assay type: in vivo; details: nude mice; K-80003 20 mg kg^−1 i.p., 12 days; anti-Myc
Experimental: (§2) Cells mounted on glass slides or tumour tissue frozen sections (5-μm-thick) were washed with PBS and fixed in 4% paraformaldehyde (PFA) for 15 min and permeabilized with PBS containing 0.1% Triton X-100 for 15 min. Fixed cells or tumour tissues were blocked with 5 mg ml^−1 BSA in PBS for 30 min at room temperature, followed with incubation with primary antibodies for 3 h and secondary antibodies at room temperature for 1 h and co-stained with 4′6′-diamidino-2-phenylindole (DAPI) to visualize nuclei. The images were taken under an LSM-510 confocal laser scanning microscope system (Carl Zeiss).
For nude mice xenograft study, Myc-RXRα and Myc-tRXRα cloned into pcdna3.0 vector were stably transfected into MCF-7 cells, and the resulting stable clones and control clone (2 × 10^6 cells in 100 μl) were injected subcutaneously into nude mice (BALB/c, SPF grade, 16–18 g, 4–5-week old). For drug treatment, mice were intraperitoneally injected (i.p.) daily with K-80003 (20 mg kg^−1) diluted in Tween-80 or vehicle (tween-80). Body weight and tumour size were measured every 2 days. Mice were killed after 12-day drug treatment and the tumours removed for various assessments. […]

tRXRα [4] = test: Nuclear/cytoplasmic fractionation with BS3 crosslinking; assay type: cell-based; details: HEK293T cells, K-80003 (5 × 10^−6 M) for 6 h, one of three similar experiments
Experimental: Cell lysates were then prepared and incubated with bis[sulfosuccinimidyl] suberate (BS3, Pierce) dissolved in dimethyl sulfoxide to a final concentration of 1 mM. The reactions were stopped with protein gel loading buffer. Samples were resolved by SDS/PAGE in 8% acrylamide gels and protein bands were visualized by western blotting.
Proteins or cell lysates were electrophoresed by SDS-PAGE gel and transferred to polyvinylidene difluoride (PVDF) membrane. The membranes were blocked with 5% skimmed milk in TBST (50 mM Tris-HCl (pH 7.4), 150 mM NaCl and 0.1% Tween20) for 1 h, then incubated with primary antibodies and secondary antibodies and detected using ECL system (Thermo). The dilutions of the primary antibodies were anti-RXRα (ΔN197, Santa Cruz) in 1:1,000, anti-PARP (H-250, Santa Cruz) in 1:3,000, anti-p85α (Millipore) in 1:1,000, anti-p-AKT (D9E, Cell Signaling Technology) in 1:1000, anti-AKT1/2/3 (H-136, Santa Cruz) in 1:1,000, anti-β-actin (Sigma) in 1:5,000, anti-c-myc (9E10, Santa Cruz) in 1:3,000, anti-HA (F-7, Santa Cruz) in 1:3,000, anti-Flag (F1804, Sigma) in 1:3,000. Images of all uncropped western blots can be found in Supplementary Figs 10–14.

tRXRα [5] = test: Subcellular localization of tRXRα, immunostaining; assay type: cell-based; details: MCF-7 cells; K-80003 (5 × 10^−6 M) for 3 h, then TNFα (10 ng ml^−1) for 30 min
Experimental: as §2

RXRα-LBD/Q275E = test: Non-denaturing gel electrophoresis, Q275E mutant; assay type: biochemical, human; details: K-80003 (20 μM), 3 h at 4 °C
Experimental: as §1

tRXRα [6] = system: tRXRα; set-up: method as in PMID 20541701; details: cited from earlier work
p85α / tRXRα interaction [7] = system: p85α / tRXRα interaction; set-up: method as in PMID 20541701; details: cited from earlier work
p85α / tRXRα interaction [8] = test: coIP, p85α with tRXRα; assay type: cell-based; details: conclusion from structure and crosslinking
Experimental: as §3

RXRα-LBD/L433D [9] = test: ITC, RXRα-LBD/L433D mutant; assay type: binding, human; details: 25 °C, protein 50 μM, pH 7.5, compound 1 mM
Experimental: as §1
Binding of compounds to RXRα-LBD or mutant was studied in […] at 25 °C using isothermal titration calorimetry (ITC) assay that measures the heat either released or absorbed during binding. The purified His-tagged RXRα-LBD or mutant protein (50 μM in 25 mM Tris-HCl, pH 7.5, 150 mM NaCl, 0.1% DMSO) was placed in the sample cell of MicroCal VP-ITC titration calorimeter. The compounds to be studied were diluted to a concentration of 1 mM in the same buffer. All solutions were degassed before the titrations. […] Calorimetric data were analysed using MicroCal Origin software (version 7.0).

CC1=C(CC(=O)O)c2cc(F)ccc2/C1=C\c1ccc(C(C)C)cc1 [K-80003]
modulation of tRXRα/F313A interaction with p85α [1]: failed to modulate the interaction of both mutants with p85α | effect on tetramerization of RXRα-LBD/L433D (RXRα-LBD/L433D [2]): failed to bind to RXRα-LBD/L433D (Supplementary Fig. 5a) and promote its tetramerization | subcellular localization of tRXRα in xenograft tumours (tRXRα [3]): a significant amount of tRXRα was found in the nucleus | distribution of tetrameric tRXRα (tRXRα [4]): found exclusively in the nuclear fraction | effect on TNFα-induced cytoplasmic colocalization of tRXRα with p85α (tRXRα [5]): inhibited, resulting in tRXRα nuclear localization | effect on tetramerization of Q275E mutant (RXRα-LBD/Q275E): impaired the tetramerization of respective mutants by K-80003 | binding to tRXRα (tRXRα [6]): binds to tRXRα | inhibition of tRXRα interaction with p85α (p85α / tRXRα interaction [7]): inhibits its interaction with p85α | inhibition of tRXRα interaction with p85α (p85α / tRXRα interaction [8]): inhibits tRXRα interaction with p85α by promoting tRXRα tetramerization | binding to RXRα-LBD/L433D (RXRα-LBD/L433D [9]): failed to bind to RXRα-LBD/L433D
